Measured values reported in US20240050498A1, “SYNERGISTIC COMPOSITION OF PHAGES AND ITS FORMATION METHOD” (Proteon Pharmaceuticals S.A., priority 2020, published 2024).

How the values were obtained:
selected APEC strains = assay: Sensitivity of all selected APEC strains to drugs (disk diffusion) and to BAFACOL, summary; assay type: cell-based, Escherichia coli; conditions: all 12 selected strains
Protocol: BAFACOL preparation with the total titer of 1×10^8 PFU/ml was used in the tests.
(§1) The drug sensitivity of APEC strains was tested with a disk diffusion method, according to CLSI recommendations (Clinical Laboratory Standards Institute; 2008 document: Performance standards for antimicrobial disk and dilution susceptibility tests for bacteria isolated from animals; approved standard, 3rd Ed. CLSI document M31-A3. Clinical and Laboratory Standards Institute, Wayne, PA.). The disk diffusion method used disks soaked with 10 selected drugs (Table 9).
The other tested APEC strains were resistant to 6-8 test antimicrobial drugs.

APEC strains = conditions: nearly 150 APEC strains, in vitro [Oliviera A. et al., 2009]; cited from earlier work
E. coli strain 130PP2017 = assay: Sensitivity of APEC strain to drugs (disk diffusion) and to BAFACOL; assay type: cell-based, Escherichia coli; conditions: CLSI, disk content as in column head
Protocol: as §1, with “[…]-A3.” for “M31-A3.”

SMILES	Drug sensitivity of all selected APEC strains (selected APEC strains)	other results
CC1(C)S[C@@H]2[C@H](NC(=O)[C@H](N)c3ccccc3)C(=O)N2[C@H]1C(=O)O [Ampicillin]	resistant	
CCn1cc(C(=O)O)c(=O)c2ccc(C)nc21 [Nalidixic acid]	resistant	
CCN1CCN(c2cc3c(cc2F)c(=O)c(C(=O)O)cn3C2CC2)CC1 [enrofloxacin]		Share of studied APEC strains that were sensitive (APEC strains): more than 50%
CN[C@@H]1[C@@H](O[C@H]2O[C@H](CO)[C@@H](N)[C@H](O)[C@H]2O)OC2C[C@@H](N)[C@@H](O[C@H]3[C@H](O)[C@@H](O)[C@H](N)C[C@@H]3N)OC2[C@@H]1O (some centres unmarked) [Apramycin]		Sensitivity to drug (R/I/S) (E. coli strain 130PP2017): sensitive
[H]/N=C(/N)N[C@H]1[C@H](O)[C@@H](O)[C@H](O[C@@H]2O[C@@H](C)[C@](O)(C=O)[C@H]2O[C@@H]2O[C@@H](CO)[C@H](O)[C@@H](O)[C@@H]2NC)[C@@H](N/C(N)=N\[H])[C@@H]1O [Streptomycin]	resistant	
